Laboratory results taken from US20250084049A1, “POLYCATIONIC SALTS OF PHENOLIC COMPOUNDS AND USES THEREOF” (Firmenich Incorporated, priority 2021, published 2025).

Test: storage of the aqueous salt solution at room temperature under nitrogen
Format: physicochemical
Settings: ~10% aqueous solution, stored for several days at room temperature under nitrogen
Description: Naringenin (500 mg, 1.84 mmol) was suspended in water (2 mL) and while stirring a solution of NaOH (2 equiv.) in water (3 mL) was added dropwise. After addition was complete, the reaction was bubbled with nitrogen and stirring continued until the solution became homogeneous. […] MS 273 (M+3H−2Na)^+.
Naringenin (500 mg, 1.84 mmol) was suspended in water (2 mL) and while stirring a solution of KOH (2 equiv.) in water (3 mL) was added dropwise. After addition was complete, the reaction was bubbled with nitrogen and stirring continued until the solution became homogeneous. […] MS 273 (M+3H−2K)^+.
Phloterin (500 mg, 1.82 mmol) was suspended in water (2 mL) and while stirring a solution of NaOH (2 equiv.) in water (3 mL) was added dropwise. After addition was complete, the reaction was bubbled with nitrogen and stirring continued until the solution became homogeneous. […] MS 275 (M+3H−2Na)^+.
Phloterin (500 mg, 1.82 mmol) was suspended in water (2 mL) and while stirring a solution of KOH (2 equiv.) in water (3 mL) was added dropwise. After addition was complete, the reaction was bubbled with nitrogen and stirring continued until the solution became homogeneous. […] MS 275 (M+3H−2K)^+.

Row | SMILES | stability of the solution on storage
1 | O=C1C[C@@H](c2ccc(O)cc2)Oc2cc(O)cc(O)c21.[Na].[Na] [Example 1, Disodium Salt of Naringenin] | without any significant change
2 | O=C1C[C@@H](c2ccc(O)cc2)Oc2cc(O)cc(O)c21.[K].[K] [Example 2, Dipotassium Salt of Naringenin] | without any significant change
3 | O=C(CCc1ccc(O)cc1)c1c(O)cc(O)cc1O.[Na].[Na] [Example 3, Disodium Salt of Phloterin] | without any significant change
4 | O=C(CCc1ccc(O)cc1)c1c(O)cc(O)cc1O.[K].[K] [Example 4, Dipotassium Salt of Phloterin] | without any significant change
